Reference: patent publication US9539282B2, “Therapeutic use of hydrogen molecules” (MAX-PLANCK-GESELLSCHAFT ZUR FORDERUNG DER WISSENSCHAFTEN …, priority 2012, dated 2017)

Tests used:
[1] = standard conditions (room temperature, standard air pressure); cited from earlier work
[2] = standard conditions, worked out from 0.8 mmol and 2 g per mole

[HH] [hydrogen]
maximum concentration at which hydrogen dissolves in water [1]: about 0.8 mmol | hydrogen per liter of water at maximum dissolution [2]: about 1.6 mg per liter
